Test systems include PC-3; SW-620; SK-MEL-2; EKVX; OVCAR-3; NCI-H460; SF-268; MOLT-4; SK-MEL-5; SK-OV-3; OVCAR-4; NCI-H226; MDA-MB-435; TK-10; T47D; HL-60; SNB-75; HOP-92; SR.
Common to all, as to experiment: growth of human tumour cells (NCI), 48 h

The record followed here is ChEMBL document CHEMBL1201862, “PubChem BioAssay data set” (2004).

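In this assay, cells in 96-well plates receive the compound at five concentrations for 48 hours. Endpoints are linearly interpolated between the surrounding concentrations. GI50 marks 50% less growth.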 The source made the active and inactive calls. Cut-off read from the data, not from the text of the source: active = GI50 up to about 1.1 µM and inactive = higher.

As for `O=C(O)CC(Cc1ccccc1)C(=O)O` (stereo unspecified), the GI50 in the experiment with PC-3, with SW-620, in the experiment on SK-MEL-2, with EKVX, with OVCAR-3 and with NCI-H460 was > 100 µM (inactive) each time. The GI50 is > 100 µM (inactive) with SF-268; > 100 µM (inactive) in the experiment on MOLT-4; > 100 µM (inactive) in the experiment on SK-MEL-5; > 100 µM (inactive) in the experiment on SK-OV-3; > 100 µM (inactive) in the experiment with OVCAR-4; 50.4 µM (inactive) with NCI-H226. In addition, the GI50 with MDA-MB-435, in the experiment on TK-10 and in the experiment on T47D was > 100 µM (inactive) in each case.

For `CSc1nc(-c2cc3c(c(SC)n2)CCC3)cc2c1CCC2`, the GI50 in the experiment on PC-3, in the experiment with SW-620, with SK-MEL-2, in the experiment with EKVX, in the experiment on OVCAR-3 and in the experiment with NCI-H460 was > 100 µM (inactive) throughout. Also, the GI50 in the experiment on SF-268, in the experiment with MOLT-4, with SK-MEL-5, with HL-60, in the experiment on SK-OV-3 and in the experiment on OVCAR-4 was > 100 µM (inactive) in each case. Besides, the GI50 in the experiment on NCI-H226, with SNB-75, with MDA-MB-435 and in the experiment with TK-10 was > 100 µM (inactive) in each case.

On to `Cc1ccnc2nc(-c3cccc4ccccc34)cc(O)c12`, for which the GI50 in the experiment with PC-3 was 0.0113 µM (active); in the experiment with SW-620 it was 0.00379 µM (active); in the experiment with SK-MEL-2 it was 0.000458 µM (active); in the experiment on EKVX it was 0.0272 µM (active); with OVCAR-3, 0.00258 µM (active); with HOP-92 it was 0.00123 µM (active). For the same molecule, the GI50 in the experiment with NCI-H460 is 0.0121 µM (active); with SF-268, 0.00867 µM (active); in the experiment on MOLT-4 it was 0.00989 µM (active); in the experiment with SK-MEL-5, 0.000991 µM (active); with HL-60 it was 0.000487 µM (active); in the experiment with SK-OV-3, 0.00471 µM (active). The GI50 with OVCAR-4 was 0.115 µM (active); in the experiment with NCI-H226, 0.0336 µM (active); with SNB-75 it was 0.00255 µM (active); in the experiment on MDA-MB-435 it was 0.0001 µM (active); in the experiment with SR, 0.0007 µM (active); with TK-10, 0.454 µM (active).

`Cc1cccc2c1NC(c1c(C)[nH]c3ccccc13)C2` (stereo unspecified): the GI50 with SW-620 was 68.2 µM (inactive); in the experiment with SK-MEL-2, > 100 µM (inactive); in the experiment with EKVX it was 82.6 µM (inactive); in the experiment with OVCAR-3, 86.7 µM (inactive); with HOP-92 it was 1.41 µM (inactive); in the experiment on NCI-H460 it was > 100 µM (inactive). Further, the GI50 in the experiment with SF-268 is > 100 µM (inactive); with MOLT-4 it was 63 µM (inactive); in the experiment on SK-MEL-5, > 100 µM (inactive); in the experiment with HL-60, 50.1 µM (inactive); in the experiment with SK-OV-3 it was > 100 µM (inactive); in the experiment with NCI-H226 it was 80.5 µM (inactive). Further, the GI50 with SNB-75, in the experiment on SR and in the experiment with TK-10 was > 100 µM (inactive) throughout.

Regarding `CC(C)CC(=O)NS(=O)(=O)c1ccccc1`, the GI50 in the experiment on SW-620, in the experiment with SK-MEL-2, in the experiment on EKVX, in the experiment on OVCAR-3, with HOP-92 and in the experiment with NCI-H460 was > 100 µM (inactive) throughout. The GI50 in the experiment with SF-268, with MOLT-4, in the experiment with HL-60, with SK-OV-3, in the experiment with OVCAR-4 and in the experiment on NCI-H226 was > 100 µM (inactive) throughout. Besides, the GI50 in the experiment with SNB-75, with SR and in the experiment on TK-10 was > 100 µM (inactive) throughout.

With `O=C(O)Cc1c(-c2ccc([N+](=O)[O-])cc2)c(=O)oc2cc(O)ccc12`, the GI50 with PC-3 is 28.1 µM (inactive); with SW-620 it was 34.8 µM (inactive); in the experiment with SK-MEL-2 it was 21.2 µM (inactive); in the experiment with EKVX, 15.1 µM (inactive); in the experiment with OVCAR-3, 18.9 µM (inactive); with NCI-H460 it was 28.9 µM (inactive). The GI50 with SF-268 is 34.8 µM (inactive); in the experiment on MOLT-4 it was 4.12 µM (inactive); with SK-MEL-5, 18.1 µM (inactive); in the experiment with HL-60 it was 17.7 µM (inactive); with SK-OV-3, 35.2 µM (inactive); with NCI-H226, 29 µM (inactive). Also, the values for the GI50 in the experiment with MDA-MB-435, in the experiment with SR and in the experiment with TK-10 were 28.8 µM (inactive), 25.9 µM (inactive) and 33.2 µM (inactive), respectively.

`CC(NC(=O)c1ccc(Cl)c(Cl)c1)c1ccc(-c2ccccc2)cc1` (stereo unspecified): the GI50 is 28.2 µM (inactive) with PC-3; 79.4 µM (inactive) in the experiment with SW-620; > 100 µM (inactive) in the experiment with SK-MEL-2; 35 µM (inactive) in the experiment on EKVX; 20.8 µM (inactive) with OVCAR-3; 25.5 µM (inactive) with HOP-92. The GI50 in the experiment on NCI-H460 is 47.4 µM (inactive); in the experiment on SF-268, 29.3 µM (inactive); in the experiment on SK-MEL-5 it was 75.7 µM (inactive); with HL-60 it was 4.58 µM (inactive); in the experiment on SK-OV-3, 27.5 µM (inactive); in the experiment on OVCAR-4, 16.4 µM (inactive). The GI50 with NCI-H226 is 31.3 µM (inactive); with SNB-75, 15.8 µM (inactive); in the experiment on MDA-MB-435, 69.5 µM (inactive); with SR, 15.2 µM (inactive); in the experiment with TK-10 it was 29 µM (inactive).

Turning to `CCN(CC)CCN1C(=O)c2c(c(-c3ccccc3)c3ccccc3c2-c2ccccc2)C1=O`, the GI50 was > 100 µM (inactive) with PC-3; > 100 µM (inactive) with SW-620; > 100 µM (inactive) in the experiment with SK-MEL-2; > 100 µM (inactive) in the experiment on EKVX; 36.8 µM (inactive) in the experiment with HOP-92; > 100 µM (inactive) in the experiment on NCI-H460. Further, the GI50 in the experiment with SF-268, in the experiment on MOLT-4, in the experiment with SK-MEL-5, with HL-60, in the experiment on SK-OV-3 and in the experiment on OVCAR-4 was > 100 µM (inactive) in each case. Further, the GI50 with NCI-H226, with SNB-75, in the experiment with MDA-MB-435 and in the experiment on TK-10 was > 100 µM (inactive) in each case.

For the molecule `CCOC(=O)c1nc2ccccc2nc1Nc1ccc(OC)c(OC)c1`, the GI50 is > 100 µM (inactive) in the experiment on SK-MEL-2; 18.7 µM (inactive) in the experiment on EKVX; > 100 µM (inactive) with OVCAR-3; 62.7 µM (inactive) in the experiment on HOP-92; > 100 µM (inactive) with NCI-H460; 27.3 µM (inactive) in the experiment with SF-268. The GI50 in the experiment with MOLT-4 was > 100 µM (inactive); with SK-MEL-5 it was 63.7 µM (inactive); in the experiment on HL-60, > 100 µM (inactive); in the experiment on SK-OV-3, > 100 µM (inactive); with OVCAR-4, > 100 µM (inactive); in the experiment with SNB-75, 21.9 µM (inactive). Further, the GI50 with MDA-MB-435 was > 100 µM (inactive); in the experiment with SR, > 100 µM (inactive); in the experiment on TK-10, > 10 µM (inactive); in the experiment with T47D, > 100 µM (inactive).

Regarding `O=C(O)c1ccc(-c2nc3cc(Cl)ccc3[nH]2)cc1`, the GI50 in the experiment on PC-3, in the experiment on SW-620, in the experiment on SK-MEL-2, with EKVX, in the experiment on OVCAR-3 and in the experiment on HOP-92 was > 100 µM (inactive) each time. Moreover, the GI50 in the experiment on MOLT-4, in the experiment on SK-MEL-5, in the experiment with HL-60, with SK-OV-3, with NCI-H226 and with SNB-75 was > 100 µM (inactive) in each case. Besides, the GI50 in the experiment with SR and in the experiment with T47D was > 100 µM (inactive) throughout.

For the molecule `COc1cc(NC(C)c2ccc3c(c2)OCCO3)cc(OC)c1OC` (stereo unspecified), the GI50 with PC-3 is 44.9 µM (inactive); in the experiment with SW-620, 33.9 µM (inactive); in the experiment with SK-MEL-2, 23.2 µM (inactive); with EKVX, 33 µM (inactive); with OVCAR-3 it was 32.1 µM (inactive); in the experiment with HOP-92, > 100 µM (inactive). Further, the GI50 with NCI-H460 is 31.6 µM (inactive); in the experiment on SF-268, 26.7 µM (inactive); in the experiment with MOLT-4, 26.3 µM (inactive); in the experiment with SK-MEL-5, 18.5 µM (inactive); in the experiment on HL-60, 18.5 µM (inactive); in the experiment on OVCAR-4, 68.4 µM (inactive). For the same molecule, the GI50 was 24.3 µM (inactive) in the experiment with NCI-H226, 4.69 µM (inactive) in the experiment with MDA-MB-435, 10.4 µM (inactive) in the experiment on SR and 63 µM (inactive) with TK-10.

Consider `CC(O[Si](C)(C)C)C1C=CC(C)n2c(=O)n(-c3ccccc3)c(=O)n21` (stereo unspecified), for which the GI50 with SK-MEL-2 was > 100 µM (inactive); with EKVX, > 100 µM (inactive); in the experiment with OVCAR-3, > 100 µM (inactive); in the experiment with HOP-92, < 0.01 µM (active); with SF-268 it was < 0.01 µM (active); in the experiment on MOLT-4, > 100 µM (inactive). The GI50 in the experiment on SK-MEL-5, in the experiment on HL-60, with SK-OV-3, in the experiment with OVCAR-4, in the experiment with SR and with TK-10 was > 100 µM (inactive) in each case.

Consider `CN(Cc1cnc2nc(N)nc(N)c2n1)c1ccc(C(=O)NC2CCCCC2)cc1`, for which the GI50 is 7.64 µM (inactive) in the experiment on PC-3; 11.1 µM (inactive) in the experiment on SW-620; 35.5 µM (inactive) with SK-MEL-2; 53.6 µM (inactive) in the experiment on EKVX; 56.2 µM (inactive) in the experiment on OVCAR-3; 20.1 µM (inactive) in the experiment on NCI-H460. Besides, the GI50 in the experiment on SF-268 was 19 µM (inactive); with MOLT-4 it was 34.7 µM (inactive); in the experiment on SK-MEL-5 it was 12.3 µM (inactive); in the experiment on HL-60 it was 23.7 µM (inactive); in the experiment with SK-OV-3, 54.6 µM (inactive); in the experiment with NCI-H226, 23.1 µM (inactive). For the same molecule, the GI50 with SNB-75 was 25.2 µM (inactive); in the experiment on SR, 33.2 µM (inactive); with TK-10 it was 51.3 µM (inactive); with T47D it was 87.1 µM (inactive).
